# Test results as given in patent publication US20250228881A1, “COMPOSITION FOR PREVENTION OR TREATMENT OF MULTIPLE MYELOMA COMPRISING NOVEL T[…] AS ACTIVE INGREDIENT” (KBLUEBIO INC, priority 2021, published 2025).
# Entries after “also recorded” stand apart in the source; their conditions may differ.
# Experiments:
# RPMI 8226 cells = assay: Quantitative RT-PCR array of 84 apoptosis-related genes after KBB-N2 treatment; assay type: cell-based, Human; settings: 50 μM KBB-N2, 48 hours
# Procedure: To investigate the cell death mechanism induced by treatment with KBB-N2, changes in the expression of apoptosis-related genes in a multiple myeloma cell line were measured. 50 μM of KBB-N2 was added to multiple myeloma cells (million cells/mL), followed by 48 hours of culture. Then, total RNA was extracted and the expression levels of 84 apoptosis-related genes were analyzed using quantitative RT-PCR array (Cat #PAHS-012Z; Qiagen Seoul, Seoul, Korea). After treating the cells with 50 μM of KBB-N2, the cells were cultured for 48 hours, and total RNA was isolated from the RPMI 8226 cells using the RNAqueous total RNA isolation kit (Thermo Fisher Scientific). Contaminating genomic DNA in the extracted RNA was removed using an RNase-Free DNase set (Qiagen). Total RNA (5 ug) was reverse transcribed into cDNA in a reaction volume of 10 μL using the RT2 First Strand Kit (Qiagen). Next, 10 μL of cDNA was combined with each primer set of the human apoptosis-related RT2 Profiler PCR Array (Qiagen) according to the manufacturer's protocol. Amplification reactions were performed using the real-time polymerase chain reaction system CFX96 (Bio-Rad, Hercules, CA, USA) with automated baseline and threshold cycle detection. The relative expression of […] genes was normalized to five built-in housekeeping genes. Each group was analyzed by the web-based software GeneGlobe Data Analysis Center (Qiagen).
# [1] = system: human-derived multiple myeloma cell lines ARH77, U266, and RPMI 8226; assay: Multiple myeloma mouse xenograft model, tail vein administration; assay type: in vivo; settings: xenograft mice
# Procedure: Using xenograft models obtained by injecting the same human-derived multiple myeloma cell lines ARH77, U266, and RPMI 8226 into mice, each of KBB-N2 was injected into the vein tail at 7 mg/Kg/day, and as a positive control, lenalidomide, which is currently widely used as a therapeutic agent for multiple myeloma in clinical practice, was injected into the vein tail at 1 mg/Kg/day.
# [2] = system: normal hematopoietic stem cells; assay: Progenitor colony formation of normal PBSC fraction on methylcellulose (toxicity to hematopoietic stem cells); assay type: cell-based; settings: normal donor PBSC, 2 weeks, KBB-N2 up to 60 μM
# Procedure: G-CSF was subcutaneously injected into a normal donor to mobilize hematopoietic stem cells, and a peripheral blood stem cell (PBSC) fraction was extracted from the donor's peripheral blood by leukapheresis. The obtained normal PBSC fraction and KBB-N2 were cultured on methylcellulose for 2 weeks, and the cytotoxicity of KBB-N2 to hematopoietic stem cells was evaluated by counting the number of the formed erythroid progenitor colonies and leukocyte/megakaryocytic progenitor colonies.
# [3] = system: multiple myeloma cell lines; assay: Co-treatment of multiple myeloma cell lines with KBB-N2 and lenalidomide (killing effect); assay type: cell-based, Human; settings: co-treated with lenalidomide, compared with lenalidomide alone
# Procedure: Multiple myeloma cells IM-9 and RPMI 8226 (3×10^6 cells/mL) treated with KBB-N2 for 48 hours were washed with 1x PBS (phosphate-buffered saline, pH 7.4) and fixed with 70% ethanol. After washing several times with 1×PBS, 5 μL of Annexin V-FITC and 5 μL of PI (propidium iodine) (Sigma-Aldrich, St. Louis, MO) were added to 500 μL of 1×PBS containing the cells (1×10^6 cells/mL) suspended therein, followed by staining in a dark room at room temperature for 30 minutes. Then, 500 μL of 1× binding buffer was added thereto, and flow cytometry was performed using FACSCalibur (Becton Dickinson, Franklin Lakes, NJ, USA), followed by analysis using the CellQuest software (Becton Dickinson) program.
compound,measurement,setting,value
CC(C)=CCC[C@](C)(O)[C@H]1CC[C@]2(C)[C@@H]1[C@H](O)C[C@@H]1[C@@]3(C)CC[C@H](O[C@@H]4O[C@H](CO)[C@@H](O)[C@H](O)[C@H]4O)C(C)(C)[C@@H]3CC[C@]12C [KBB-N2],overexpression of apoptosis-related gene APAF1,RPMI 8226 cells,at least 2 fold
same,overexpression of apoptosis-related gene BAD,RPMI 8226 cells,at least 2 fold
same,overexpression of apoptosis-related gene BCL2,RPMI 8226 cells,at least 3 fold
same,overexpression of apoptosis-related gene BCL2L1,RPMI 8226 cells,at least 2 fold
same,overexpression of apoptosis-related gene CAS7,RPMI 8226 cells,at least 3 fold
same,overexpression of apoptosis-related gene CASP2,RPMI 8226 cells,at least 2 fold
same,overexpression of apoptosis-related gene CASP3,RPMI 8226 cells,at least 2 fold
same,overexpression of apoptosis-related gene DAPK1,RPMI 8226 cells,at least 4 fold
same,overexpression of apoptosis-related gene FADD,RPMI 8226 cells,at least 2 fold
same,overexpression of apoptosis-related gene HRK,RPMI 8226 cells,at least 2 fold
same,overexpression of apoptosis-related gene IGFIR,RPMI 8226 cells,at least 2 fold
same,overexpression of apoptosis-related gene LTBR,RPMI 8226 cells,at least 2 fold
same,overexpression of apoptosis-related gene NAIP,RPMI 8226 cells,at least 2 fold
same,overexpression of apoptosis-related gene NOD1,RPMI 8226 cells,at least 2 fold
same,overexpression of apoptosis-related gene NOL3,RPMI 8226 cells,at least 2 fold
same,overexpression of apoptosis-related gene TNF,RPMI 8226 cells,at least 2 fold
same,overexpression of apoptosis-related gene TNFRF1A,RPMI 8226 cells,at least 2 fold
same,overexpression of apoptosis-related gene TNFRSF1B,RPMI 8226 cells,at least 2 fold
same,overexpression of apoptosis-related gene TNFRSF10A,RPMI 8226 cells,at least 2 fold
same,overexpression of apoptosis-related gene TNFRSF10B,RPMI 8226 cells,at least 2 fold
same,overexpression of apoptosis-related gene TNFRSF25,RPMI 8226 cells,at least 2 fold
same,overexpression of apoptosis-related gene TP53,RPMI 8226 cells,at least 2 fold
same,overexpression of apoptosis-related gene TRADD,RPMI 8226 cells,at least 2 fold
same,overexpression of apoptosis-related gene XIAP,RPMI 8226 cells,at least 2 fold
same,therapeutic effect for multiple myeloma,[1]; KBB-N2 7 mg/Kg/day tail vein vs positive control lenalidomide 1 mg/Kg/day tail vein,therapeutic effect equal to or higher than that of traditional lenalidomide
same,effect on multiple myeloma treatment in bone marrow biopsy after treatment,[1]; bone marrow biopsy after treatment,effect of KBB-N2 on multiple myeloma treatment was also found
same,cytotoxicity to hematopoietic stem cells: number and morphology/formation of progenitor cell colonies,[2],not toxic to normal hematopoietic stem cells; also recorded: not significantly inhibited
same,killing effect on co-treatment with lenalidomide,[3],killing effect was higher
